In brackets after ≈: the same amount, converted by molar mass. Read-outs that look alike come from different tables or passages of the source.
What was measured:
Assay in all cases: standard MIC test
Type in all cases: cell-based
Escherichia coli 0111 = system: Escherichia coli 0111
Text: (§1) In a standard MIC test the following data were obtained.

[1] = system: Salmonella typhimurium CT10; settings: Salmonella enterica
Text: as §1

[2] = system: Staphylococcus aureus Russell
Text: as §1

E.coli JT39 = settings: Escherichia coli
Text: as §1

C[C@H](O)[C@@H]1C(=O)N2C(C(=O)[O-])=C(Sc3ncccn3)[C@H](C)[C@@H]12.[Na+] (racemic) [Example 16, Sodium (4RS,5RS,6RS)-4-methyl-6-[(1SR)-1-hydroxyethyl]-3-(pyrimidin-2-ylthio)-7-oxo-1-azabicyclo[3.2.0]hept-2-ene-2-carboxylate]
MIC (Escherichia coli 0111): 1.6 µg/mL | MIC ([1]; TYPHIMURIUM): 1.6 µg/mL | MIC ([2]; Staphylococcus aureus): 0.4 µg/mL

C[C@@H](O)[C@H]1C(=O)N2C(C(=O)O)=C(Sc3ncccn3)[C@H](C)[C@H]12 (racemic) [Example 40]
MIC ([1]; Salmonella typhimurium CT10, read-out: MIC): 6.2 µg/mL (≈ 19.3 µM) | MIC (E.coli JT39; E.coli JT39, read-out: M.I.C): 1.6 µg/mL (≈ 4.98 µM) | MIC ([2]; Staphylococcus aureus Russell, read-out: MIC): 0.4 µg/mL (≈ 1.24 µM)

C[C@@H]1C(Sc2ncccn2)=C(C(=O)[O-])N2C(=O)[C@H]([C@@H](C)O)[C@@H]12.[Na+] [Example 30, Sodium (4S,5S,6S)-4-methyl-6-[(1R)-1-hydroxyethyl]-3-(pyrimidin-2-ylthio)-7-oxo-1-azabicyclo [3.2.0] hept-2-ene-2-carboxylate]
MIC ([1]; TYPHIMURIUM): 3.1 µg/mL | MIC (E.coli JT39; JT39): 0.8 µg/mL | MIC ([2]; Staphylococcus aureus): 0.8 µg/mL
